Data from patent US20260070945A1, “MACROCYCLIC IMMUNOMODULATORS” (Bristol-Myers Squibb Company, priority 2022, published 2026).
Where a SMILES comes first, the peptide text is derived from it. Bridges are numbered along the chain shown (N, C = ends). [ ]: non-standard residue; d: D form. The star is where a group is joined. ξ: configuration not given here. Trp(βS-Me) = C[C@@H](c1c[nH]c2ccccc12)[C@H](N)C(=O)O; Phe(3-CF3) = N[C@@H](Cc1cccc(C(F)(F)F)c1)C(=O)O; Phe(4-COOH) = N[C@@H](Cc1ccc(C(=O)O)cc1)C(=O)O; Bip = N[C@@H](Cc1ccc(-c2ccccc2)cc1)C(=O)O; NH(CH2)14COOH = O=C(O)CCCCCCCCCCCCCCN*; Phe(3-Me) = Cc1cccc(C[C@H](N)C(=O)O)c1; NH(CH2)12COOH = O=C(O)CCCCCCCCCCCCN*; Val(3-OH) = CC(C)(O)[C@H](N)C(=O)O; hhGln = NC(=O)CCCC[C@H](N)C(=O)O; 4Pal = N[C@@H](Cc1ccncc1)C(=O)O; Cha = N[C@@H](CC1CCCCC1)C(=O)O; Cit = NC(=O)NCCC[C@H](N)C(=O)O; Ile(3ξ) = CCC(C)[C@H](N)C(=O)O; Thr(3ξ) = CC(O)[C@H](N)C(=O)O; 12Ado = NCCCCCCCCCCCC(=O)O; Carboxymethyl = O=C(O)C*; NMeA = CN[C@@H](C)C(=O)O; Orn = NCCC[C@H](N)C(=O)O; Aun = NCCCCCCCCCCC(=O)O; Dab = NCC[C@H](N)C(=O)O; Nva = CCC[C@H](N)C(=O)O; Dap = NC[C@H](N)C(=O)O; AEEA = NCCOCCOCC(=O)O

Target: T1, PD-1/PD-L1 interaction (PE-labeled human PD-L1-Ig binding to Jurkat cell line over-expressing human PD-1) (Homo sapiens, UniProt Q15116)
T1 construct: expressed in transfected cells; host or cells: Jurkat
Test: Jurkat-PD-1 Cell Binding High-Content Screening Assay (CBA)
Details: Jurkat-hPD-1 cells, PE-labeled PD-L1-Ig 20 nM final; read-out: Jurkat HPD1 PDL1 IC50
Method in brief: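 In this imaging assay, cells in 10% FCS medium see compound for 2 h at 37 °C and then labeled ligand at 20 nM final for 1 h. Paraformaldehyde fixation, Hoechst 33342 staining and dPBS washes precede image capture.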

T1 sequence (Q15116 25-288): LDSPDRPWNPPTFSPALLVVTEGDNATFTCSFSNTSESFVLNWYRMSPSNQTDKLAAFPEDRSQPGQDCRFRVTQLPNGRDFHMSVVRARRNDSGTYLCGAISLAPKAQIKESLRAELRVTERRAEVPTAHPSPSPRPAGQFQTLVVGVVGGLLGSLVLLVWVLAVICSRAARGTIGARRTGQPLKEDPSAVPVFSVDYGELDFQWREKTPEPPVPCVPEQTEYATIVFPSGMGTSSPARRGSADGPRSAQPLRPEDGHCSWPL

| IC50 | Structure (SMILES) |
| --- | --- |
| 66.2 nM | CCC(C)[C@@H]1NC(=O)[C@H](Cc2ccc(-c3ccccc3)cc2)NC(=O)[C@H](CC(C)C)NC(=O)[C@H](Cc2c[nH]c3ccccc23)NC(=O)[C@H](CC(=O)O)NC(=O)[C@H](Cc2ccc(O)cc2)NC(=O)[C@H](Cc2ccncc2)NC(=O)CSC[C@@H](C(=O)N[C@@H](CN)C(=O)NCCOCCOCC(=O)NCCCCCCCCCCC(=O)O)NC(=O)[C@H](CO)NC(=O)[C@H](C(C)C)NC(=O)[C@H](CC(C)C)NC(=O)[C@H](CC(N)=O)NC(=O)[C@@H](CC(C)C)NC(=O)[C@H](C)N(C)C1=O (stereo partly drawn) [Example 2053] ({CH2CO}-[4Pal]YDWL[Bip][Ile(3ξ)][NMeA][dL]NLVSC[Dap][AEEA][Aun]-OH; thioether N-14) |
| 327 nM | CC(C)C[C@H]1NC(=O)[C@H](C)N(C)C(=O)[C@H](Cc2ccc(OCC(=O)O)cc2)NC(=O)[C@H](Cc2ccc(-c3ccccc3)cc2)NC(=O)[C@H](Cc2ccc(OCC(=O)O)cc2)NC(=O)[C@H]([C@@H](C)c2c[nH]c3ccccc23)NC(=O)[C@H](CC(=O)O)NC(=O)[C@H](Cc2ccc(OCC(=O)O)cc2)NC(=O)[C@H](CCCNC(=N)N)NC(=O)CSC[C@@H](C(=O)N[C@@H](CCN)C(=O)NCCCCCCCCCCC(=O)O)NC(=O)[C@H]([C@@H](C)O)NC(=O)[C@H](C(C)C)NC(=O)[C@H](CC2CCCCC2)NC(=O)[C@H](CCN)NC1=O [Example 1273] ({CH2CO}-RY(Carboxymethyl)D[Trp(βS-Me)]Y(Carboxymethyl)[Bip]Y(Carboxymethyl)[NMeA][dL][Dab][Cha]VTC[Dab][Aun]-OH; thioether N-14) |
| 45.8 nM | Cc1cccc(C[C@@H]2NC(=O)[C@H](CC(=O)O)NC(=O)[C@H](Cc3ccc(OCC(=O)O)cc3)NC(=O)[C@H]([C@@H](C)O)NC(=O)CSC[C@@H](C(=O)N[C@@H](CCN)C(=O)NCCOCCOCC(=O)NCCCCCCCCCCC(=O)O)NC(=O)[C@H](CCCN)NC(=O)[C@H](C(C)C)NC(=O)[C@H](CC3CCCCC3)NC(=O)[C@H](CCC(=O)O)NC(=O)[C@@H](CC(C)C)NC(=O)[C@H](C)N(C)C(=O)[C@H](Cc3ccc(OCC(=O)O)cc3)NC(=O)[C@H](Cc3ccc(-c4ccccc4)cc3)NC(=O)[C@H](Cc3ccc(OCC(=O)O)cc3)NC2=O)c1 [Example 1376] ({CH2CO}-TY(Carboxymethyl)D[Phe(3-Me)]Y(Carboxymethyl)[Bip]Y(Carboxymethyl)[NMeA][dL]E[Cha]V[Orn]C[Dab][AEEA][Aun]-OH; thioether N-14) |
| 31 nM | Cc1cccc(C[C@@H]2NC(=O)[C@H](CC(=O)O)NC(=O)[C@H](Cc3ccc(OCC(=O)O)cc3)NC(=O)[C@H]([C@@H](C)O)NC(=O)CSC[C@@H](C(=O)N[C@@H](CCN)C(=O)NCCOCCOCC(=O)NCCCCCCCCCCC(=O)O)NC(=O)[C@H](CC(N)=O)NC(=O)[C@H](C(C)C)NC(=O)[C@H](CC3CCCCC3)NC(=O)[C@H](CCC(=O)O)NC(=O)[C@@H](CC(C)C)NC(=O)[C@H](C)N(C)C(=O)[C@H](Cc3ccc(OCC(=O)O)cc3)NC(=O)[C@H](Cc3ccc(-c4ccccc4)cc3)NC(=O)[C@H](Cc3ccc(OCC(=O)O)cc3)NC2=O)c1 [Example 1377] ({CH2CO}-TY(Carboxymethyl)D[Phe(3-Me)]Y(Carboxymethyl)[Bip]Y(Carboxymethyl)[NMeA][dL]E[Cha]VNC[Dab][AEEA][Aun]-OH; thioether N-14) |
| 11 nM | CC(C)C[C@@H]1NC(=O)[C@H](Cc2c[nH]c3ccccc23)NC(=O)[C@H](CC(=O)O)NC(=O)[C@H](Cc2ccc(OCC(=O)O)cc2)NC(=O)[C@H](Cc2ccc(OCC(=O)O)cc2)NC(=O)CSC[C@@H](C(=O)N[C@@H](CCCCN)C(=O)NCCOCCOCC(=O)NCCCCCCCCCCC(=O)O)NC(=O)[C@H](CN)NC(=O)[C@H](C(C)C)NC(=O)[C@H](CC2CCCCC2)NC(=O)[C@H](CCN)NC(=O)[C@@H](CC(C)C)NC(=O)[C@H](C)N(C)C(=O)[C@H](C(C)C)NC(=O)[C@H](Cc2ccc(-c3ccccc3)cc2)NC1=O [Example 2154] ({CH2CO}-Y(Carboxymethyl)Y(Carboxymethyl)DWL[Bip]V[NMeA][dL][Dab][Cha]V[Dap]CK[AEEA][Aun]-OH; thioether N-14) |
| 228 nM | CCC(C)[C@@H]1NC(=O)[C@H](Cc2ccc(-c3ccccc3)cc2)NC(=O)[C@H](C(C)C)NC(=O)[C@H](Cc2c[nH]c3ccccc23)NC(=O)[C@H](CC(=O)O)NC(=O)[C@H](Cc2ccc(OCC(=O)O)cc2)NC(=O)[C@H](C(C)O)NC(=O)CSC[C@@H](C(=O)N[C@@H](CCCN)C(=O)N[C@@H](CO)C(=O)NCCCCCCCCCCCC(=O)O)NC(=O)[C@H](CCCN)NC(=O)[C@H](C(C)C)NC(=O)[C@H](CC2CCCCC2)NC(=O)[C@H](CCN)NC(=O)[C@@H](CC(C)C)NC(=O)[C@H](C)N(C)C1=O (stereo partly drawn) [Example 2408] ({CH2CO}-[Thr(3ξ)]Y(Carboxymethyl)DWV[Bip][Ile(3ξ)][NMeA][dL][Dab][Cha]V[Orn]C[Orn]S[12Ado]-OH; thioether N-14) |
| 6.2 nM | CCC[C@@H]1NC(=O)[C@@H](CC(C)C)NC(=O)[C@H](C)N(C)C(=O)[C@H](C(C)C)NC(=O)[C@H](Cc2ccc(-c3ccccc3)cc2)NC(=O)[C@H](CC(C)C)NC(=O)[C@H](Cc2c[nH]c3ccccc23)NC(=O)[C@H](CC(=O)O)NC(=O)[C@H](Cc2ccc(C(=O)O)cc2)NC(=O)[C@H](Cc2ccc(OCC(=O)O)cc2)NC(=O)CSC[C@@H](C(=O)NCCOCCOCC(=O)NCCCCCCCCCCC(=O)O)NC(=O)[C@H](CCCCC(N)=O)NC(=O)[C@H](C(C)C)NC(=O)[C@H](CC2CCCCC2)NC1=O [Example 2187] ({CH2CO}-Y(Carboxymethyl)[Phe(4-COOH)]DWL[Bip]V[NMeA][dL][Nva][Cha]V[hhGln]C[AEEA][Aun]-OH; thioether N-14) |

Same assay, conditions: PE-labeled PD-L1-Ig 20 nM final, Jurkat-hPD-1 cells; read-out: Jurkat HPD1 PDL1 IC50

| IC50 | Structure (SMILES) |
| --- | --- |
| 99.4 nM | CC(=O)NCCCC[C@@H]1NC(=O)[C@H](C(C)(C)O)NC(=O)[C@H](CC2CCCCC2)NC(=O)[C@H](CCN)NC(=O)[C@@H](CC(C)C)NC(=O)[C@H](C)N(C)C(=O)[C@H](CCCNC(N)=O)NC(=O)[C@H](Cc2ccc(-c3ccccc3)cc2)NC(=O)[C@H](Cc2ccc(OCC(=O)O)cc2)NC(=O)[C@H](Cc2cccc(C(F)(F)F)c2)NC(=O)[C@H](CC(=O)O)NC(=O)[C@H](Cc2ccc(OCC(=O)O)cc2)NC(=O)[C@H](CCN)NC(=O)CSC[C@@H](C(=O)N[C@@H](CCN)C(=O)NCCCCCCCCCCCCCCC(=O)O)NC1=O [Example 2623] ({CH2CO}-[Dab]Y(Carboxymethyl)D[Phe(3-CF3)]Y(Carboxymethyl)[Bip][Cit][NMeA][dL][Dab][Cha][Val(3-OH)]K(Ac)C[Dab]-{NH(CH2)14COOH}; thioether N-14) |
| 114 nM | CC(C)C[C@H]1NC(=O)[C@H](C)N(C)C(=O)[C@H](CCCNC(=N)N)NC(=O)[C@H](Cc2ccc(-c3ccccc3)cc2)NC(=O)[C@H](Cc2ccc(C(=O)O)cc2)NC(=O)[C@H](Cc2cccc(C(F)(F)F)c2)NC(=O)[C@H](CC(=O)O)NC(=O)[C@H](Cc2ccc(OCC(=O)O)cc2)NC(=O)[C@H](C(C)O)NC(=O)CSC[C@@H](C(=O)N[C@H](CC(N)=O)C(=O)NCCCCCCCCCCCCC(=O)O)NC(=O)[C@H](CO)NC(=O)[C@H](C(C)(C)O)NC(=O)[C@H](CC2CCCCC2)NC(=O)[C@H](CCN)NC1=O (stereo partly drawn) [Example 2645] ({CH2CO}-[Thr(3ξ)]Y(Carboxymethyl)D[Phe(3-CF3)][Phe(4-COOH)][Bip]R[NMeA][dL][Dab][Cha][Val(3-OH)]SC[dN]-{NH(CH2)12COOH}; thioether N-14) |
| 20.1 nM | CC(=O)NCCCC[C@@H]1NC(=O)[C@H](C(C)(C)O)NC(=O)[C@H](CC2CCCCC2)NC(=O)[C@H](CCN)NC(=O)[C@@H](CC(C)C)NC(=O)[C@H](C)N(C)C(=O)[C@H](CCC(N)=O)NC(=O)[C@H](Cc2ccc(-c3ccccc3)cc2)NC(=O)[C@H](Cc2ccc(C(=O)O)cc2)NC(=O)[C@H](Cc2cccc(C(F)(F)F)c2)NC(=O)[C@H](CC(=O)O)NC(=O)[C@H](Cc2ccc(OCC(=O)O)cc2)NC(=O)[C@H](Cc2ccc(OCC(=O)O)cc2)NC(=O)CSC[C@@H](C(=O)N[C@@H](CCN)C(=O)NCCOCCOCC(=O)NCCCCCCCCCCCCC(=O)O)NC1=O [Example 2617] ({CH2CO}-Y(Carboxymethyl)Y(Carboxymethyl)D[Phe(3-CF3)][Phe(4-COOH)][Bip]Q[NMeA][dL][Dab][Cha][Val(3-OH)]K(Ac)C[Dab][AEEA]-{NH(CH2)12COOH}; thioether N-14) |
| 164 nM | CC(C)C[C@H]1NC(=O)[C@H](C)N(C)C(=O)[C@H](CCC(N)=O)NC(=O)[C@H](Cc2ccc(-c3ccccc3)cc2)NC(=O)[C@H](Cc2ccc(OCC(=O)O)cc2)NC(=O)[C@H](Cc2cccc(C(F)(F)F)c2)NC(=O)[C@H](CC(=O)O)NC(=O)[C@H](Cc2ccc(OCC(=O)O)cc2)NC(=O)[C@H](Cc2ccc(OCC(=O)O)cc2)NC(=O)CSC[C@@H](C(=O)N[C@@H](CCN)C(=O)NCCOCCOCC(=O)NCCOCCOCC(=O)N[C@H](CCC(=O)NCCCCCCCCCCCCCCC(=O)O)C(=O)O)NC(=O)[C@H](Cc2cnc[nH]2)NC(=O)[C@H](C(C)(C)O)NC(=O)[C@H](CC2CCCCC2)NC(=O)[C@H](CCN)NC1=O [Example 2627] ({CH2CO}-Y(Carboxymethyl)Y(Carboxymethyl)D[Phe(3-CF3)]Y(Carboxymethyl)[Bip]Q[NMeA][dL][Dab][Cha][Val(3-OH)]HC[Dab][AEEA][AEEA][dE](NH(CH2)14COOH)-OH; thioether N-14) |
| 3.1 nM | CCC(C)[C@@H]1NC(=O)[C@H](Cc2ccc(-c3ccccc3)cc2)NC(=O)[C@H](C(C)C)NC(=O)[C@H](Cc2c[nH]c3ccccc23)NC(=O)[C@H](CC(=O)O)NC(=O)[C@H](Cc2ccc(OCC(=O)O)cc2)NC(=O)[C@H](Cc2cnc[nH]2)NC(=O)CSC[C@@H](C(=O)N[C@@H](CCN)C(=O)NCCOCCOCC(=O)NCCCCCCCCCCC(=O)O)NC(=O)[C@H](CCC(=O)O)NC(=O)[C@H](C(C)(C)O)NC(=O)[C@H](CC2CCCCC2)NC(=O)[C@H](CCN)NC(=O)[C@@H](CC(C)C)NC(=O)[C@H](C)N(C)C1=O (stereo partly drawn) [Example 2591] ({CH2CO}-HY(Carboxymethyl)DWV[Bip][Ile(3ξ)][NMeA][dL][Dab][Cha][Val(3-OH)]EC[Dab][AEEA][Aun]-OH; thioether N-14) |
